According to ChEMBL document CHEMBL1212877, “Multipotent drugs with cholinergic and neuroprotective properties for the treatment of Alzheimer and neuronal vascular diseases. I. Synthesis, biological assessment, and molecular modeling of simple and readily available 2-aminopyridine-, and 2-chloropyridine-3,5-dicarbonitriles” (Bioorg Med Chem, 2010):
Values joined by “and” are separate entries in the source; they are usually repeats but may differ in a detail not shown here. Identical values can stand only once.

Legend:
[1] = molecular target: Butyrylcholinesterase (Equus caballus, UniProt Q9N1N9); test: Inhibition of equine serum BuChE after 10 mins by Ellman's method
[2] = test system: SH-SY5Y; test: Neuroprotective activity in human SH-SY5Y cells assessed as protection against rotenone/oligomycin-A-induced cell death at 1 uM after 24 hrs by MTT assay relative to control; type: functional
[3] = molecular target: T1, Acetylcholinesterase (Electrophorus electricus, UniProt O42275); test: Inhibition of Electrophorus electricus AChE after 10 mins by Ellman's method
[4] = test system: SH-SY5Y; test: Neuroprotective activity in human SH-SY5Y cells assessed as protection against rotenone/oligomycin-A-induced cell death at 1 uM after 24 hrs by LDH release assay relative to control; type: functional
[5] = molecular target: T1, Acetylcholinesterase; test: Binding affinity to Electrophorus electricus AChE peripheral anionic site
[6] = molecular target: T1, Acetylcholinesterase; test: Non competitive inhibition of Electrophorus electricus AChE by Lineweaver-Burke plot analysis

Chain of Butyrylcholinesterase (Q9N1N9 whole entry): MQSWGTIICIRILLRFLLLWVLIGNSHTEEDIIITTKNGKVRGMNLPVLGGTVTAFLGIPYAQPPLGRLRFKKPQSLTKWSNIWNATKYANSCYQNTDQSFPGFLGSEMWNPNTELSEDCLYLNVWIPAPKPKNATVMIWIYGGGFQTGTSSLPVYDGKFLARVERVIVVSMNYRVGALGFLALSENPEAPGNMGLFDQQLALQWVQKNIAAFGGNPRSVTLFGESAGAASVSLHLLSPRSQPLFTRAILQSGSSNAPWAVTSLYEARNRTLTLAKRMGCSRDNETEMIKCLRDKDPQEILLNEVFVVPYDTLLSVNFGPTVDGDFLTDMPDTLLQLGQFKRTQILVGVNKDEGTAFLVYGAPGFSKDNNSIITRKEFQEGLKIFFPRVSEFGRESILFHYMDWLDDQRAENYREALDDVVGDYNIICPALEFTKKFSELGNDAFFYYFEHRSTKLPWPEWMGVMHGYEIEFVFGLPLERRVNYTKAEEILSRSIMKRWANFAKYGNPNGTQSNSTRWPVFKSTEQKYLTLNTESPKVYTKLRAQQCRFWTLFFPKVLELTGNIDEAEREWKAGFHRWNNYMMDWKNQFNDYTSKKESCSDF
T1 sequence (O42275 whole entry): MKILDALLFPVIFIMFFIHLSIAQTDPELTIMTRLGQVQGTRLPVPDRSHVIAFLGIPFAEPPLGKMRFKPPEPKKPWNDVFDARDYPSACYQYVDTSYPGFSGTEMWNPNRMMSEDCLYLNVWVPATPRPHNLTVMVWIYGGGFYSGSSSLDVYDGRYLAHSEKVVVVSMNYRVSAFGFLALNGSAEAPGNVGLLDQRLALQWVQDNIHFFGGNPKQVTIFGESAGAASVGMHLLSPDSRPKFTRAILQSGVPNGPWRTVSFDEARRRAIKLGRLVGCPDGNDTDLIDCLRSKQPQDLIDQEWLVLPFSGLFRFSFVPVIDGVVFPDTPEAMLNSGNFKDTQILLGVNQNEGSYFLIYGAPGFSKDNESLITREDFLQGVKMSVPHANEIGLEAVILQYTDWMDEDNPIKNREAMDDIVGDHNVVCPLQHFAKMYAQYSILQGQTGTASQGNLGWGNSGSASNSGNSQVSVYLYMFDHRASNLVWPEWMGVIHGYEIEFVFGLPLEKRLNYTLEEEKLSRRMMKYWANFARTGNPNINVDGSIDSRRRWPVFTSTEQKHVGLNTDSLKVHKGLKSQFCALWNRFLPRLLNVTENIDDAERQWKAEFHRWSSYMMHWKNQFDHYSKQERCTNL

| Compound | IC50 [1] [µM] | Activity [2] [%] | IC50 [3] [µM] | Activity [4] [%] | Ki [5] | Ki [6] [µM] |
| --- | --- | --- | --- | --- | --- | --- |
| C#CCNc1nc(N)c(C#N)cc1C#N | > 100 | 17.7 | > 100 | – | – | – |
| N#Cc1cc(C#N)c(N2C3CCC2CC3)nc1N | > 100 | 0 | > 100 | – | – | – |
| N#Cc1cc(C#N)c(N2CCCC2)nc1N | > 100 | 20.1 | 3.5 | – | – | – |
| CN(C)c1nc(N)c(C#N)cc1C#N | > 100 | 12.9 | 22.7 | 36.2 | – | – |
| N#Cc1cc(C#N)c(OCCCc2ccccc2)nc1N | > 100 | 0 | > 100 | – | – | – |
| CC[N+](C)(CC)CCC[n+]1c(-c2ccccc2)c2cc(N)ccc2c2ccc(N)cc21 [PROPIDIUM] | – | – | – | – | 8.6 µM and 8.9 µM | – |
| N#Cc1cc(C#N)c(N2C3CCC2CC3)nc1Cl | 24 | 7.5 | 75 | 31.6 | – | – |
| COc1nc(N)c(C#N)cc1C#N | > 100 | 11 | > 100 | – | – | – |
| N#Cc1c(Cl)nc(N2C3CCC2CC3)c(C#N)c1-c1ccccc1 | > 100 | 12.9 | > 100 | – | – | – |
| N#Cc1cc(C#N)c(N2CCC(Cc3ccccc3)CC2)nc1N | > 100 | 19.1 | > 100 | – | – | – |
| N#Cc1cc(C#N)c(N2CCCCC2)nc1N | 26 | 10.2 | > 100 | 14.8 | – | – |
| N#Cc1c(Cl)nc(N2CCCCC2)c(C#N)c1-c1ccccc1 | > 100 | 0 | > 100 | – | – | – |
| N#Cc1cc(C#N)c(N2CCC(O)CC2)nc1N | > 100 | 3 | > 100 | 15.1 | – | – |
| N#Cc1c(N)nc(NCc2ccccc2)c(C#N)c1-c1ccccc1 | > 100 | 10.6 | > 100 | – | – | – |
| N#Cc1c(N)nc(N2C3CCC2CC3)c(C#N)c1-c1ccccc1 | 3.8 | 0.7 | > 100 | – | – | – |
| N#Cc1c(N)nc(Sc2ccccc2)c(C#N)c1-c1ccccc1 | > 100 | 11.2 | > 100 | 3.84 | – | – |
| N#Cc1c(N)nc(S)c(C#N)c1-c1ccccc1 | > 100 | 5.8 | > 100 | 14.1 | – | – |
| CN(C)c1nc(Cl)c(C#N)c(-c2ccccc2)c1C#N | > 100 | 0 | 10 | – | – | – |
| N#Cc1c(Cl)nc(N2CCCC2)c(C#N)c1-c1ccccc1 | > 100 | 7.5 | 5.6 | 37.7 | – | – |
| N#Cc1cc(C#N)c(NCCO)nc1N | > 100 | 21.4 | > 100 | 3 | – | – |
| CN(C)c1nc(Cl)c(C#N)cc1C#N | > 100 | 6 | 5 | – | – | – |
| N#Cc1c(N)nc(N2CCCCC2)c(C#N)c1-c1ccccc1 | > 100 | 2.7 | > 100 | 10.7 | – | – |
| CCOc1nc(N)c(C#N)cc1C#N | > 100 | 32.9 | > 100 | 10.9 | – | – |
| CN(C)c1nc(N)c(C#N)c(-c2ccccc2)c1C#N | > 100 | 0 | > 100 | – | – | – |
| N#Cc1cc(C#N)c(N2CCCC2)nc1Cl | > 100 | 7.5 | 0.8 | 32 | – | – |
| N#Cc1cc(C#N)c(N2CCCCC2)nc1Cl | > 100 | 14.7 | 9.5 | – | – | 17.2 |
